Source: the supplement of paper PMC10307832

Legend:
Assay in all cases: relative viability (nuclei count vs DMSO), 5 days (fraction); higher = more cells survive
201T = test system: 201T
Procedure, shortened: (§1)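 Relative viability is defined as nuclei in treated wells over nuclei in vehicle wells. Duplicate plates were run and medians reported. Lung cancer cell lines in 1536-well plates were dosed by pin tool one day after seeding, with one drug or with a fixed anchor-drug dose plus five library-drug doses (not always all listed) in √10 steps, and nuclei were counted after 5 days.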

NCI-H1650 = test system: NCI-H1650
Procedure, shortened: as §1

BEN = test system: BEN
Procedure, shortened: as §1

NCI-H2009 = test system: NCI-H2009
Procedure, shortened: as §1

NCI-H1437 = test system: NCI-H1437
Procedure, shortened: as §1

ABC-1 = test system: ABC-1
Procedure, shortened: as §1

HCC-366 = test system: HCC-366
Procedure, shortened: as §1

CAL-12T = test system: CAL-12T
Procedure, shortened: as §1

NCI-H3122 = test system: NCI-H3122
Procedure, shortened: as §1

NCI-H661 = test system: NCI-H661
Procedure, shortened: as §1

PC-14 = test system: PC-14
Procedure, shortened: as §1

HARA = test system: HARA
Procedure, shortened: as §1

NCI-H727 = test system: NCI-H727
Procedure, shortened: as §1

EKVX = test system: EKVX
Procedure, shortened: as §1

NCI-H441 = test system: NCI-H441
Procedure, shortened: as §1

COR-L23 = test system: COR-L23
Procedure, shortened: as §1

LU99A = test system: LU99A
Procedure, shortened: as §1

NCI-H2170 = test system: NCI-H2170
Procedure, shortened: as §1

NCI-H838 = test system: NCI-H838
Procedure, shortened: as §1

NCI-H1666 = test system: NCI-H1666
Procedure, shortened: as §1

COR-L 105 = test system: COR-L 105
Procedure, shortened: as §1

LK-2 = test system: LK-2
Procedure, shortened: as §1

Q: Oc1nc(-c2ccc(C(F)(F)F)cc2)nc2c1CSCC2 [XAV939] + CS(=O)(=O)N1CCN(Cc2cc3nc(-c4cccc5[nH]ncc45)nc(N4CCOCC4)c3s2)CC1 [Pictilisib] (partner 1 µM) was tested. Which relative viability (201T; first compound 0.08 µM) did it give?
A: Its relative viability is 0.673.

Q: And the relative viability (201T; first compound 0.253 µM)?
A: The relative viability was 0.593.

Q: What about the relative viability (201T; first compound 0.8 µM) of the same compound?
A: The relative viability was 0.583.

Q: What about the relative viability (201T; first compound 2.53 µM) of the same compound?
A: The relative viability was 0.525.

Q: And the relative viability (NCI-H1650; first compound 0.08 µM)?
A: The relative viability was 0.587.

Q: What about the relative viability (NCI-H1650; first compound 0.253 µM) of the same compound?
A: Its relative viability is 0.615.

Q: And the relative viability (NCI-H1650; first compound 0.8 µM)?
A: The relative viability was 0.49.

Q: And the relative viability (NCI-H1650; first compound 2.53 µM)?
A: The relative viability was 0.394.

Q: And the relative viability (BEN; first compound 0.08 µM)?
A: Its relative viability is 0.579.

Q: What about the relative viability (BEN; first compound 0.253 µM) of the same compound?
A: Its relative viability is 0.472.

Q: And the relative viability (BEN; first compound 0.8 µM)?
A: Its relative viability is 0.529.

Q: What about the relative viability (NCI-H2009; first compound 0.08 µM) of the same compound?
A: The relative viability was 0.878.

Q: And the relative viability (NCI-H2009; first compound 0.253 µM)?
A: Its relative viability is 0.718.

Q: What about the relative viability (NCI-H2009; first compound 0.8 µM) of the same compound?
A: Its relative viability is 0.67.

Q: What about the relative viability (NCI-H2009; first compound 2.53 µM) of the same compound?
A: The relative viability was 0.511.

Q: What about the relative viability (NCI-H1437; first compound 0.08 µM) of the same compound?
A: Its relative viability is 0.436.

Q: What about the relative viability (NCI-H1437; first compound 0.253 µM) of the same compound?
A: Its relative viability is 0.44.

Q: And the relative viability (NCI-H1437; first compound 0.8 µM)?
A: Its relative viability is 0.561.

Q: What about the relative viability (NCI-H1437; first compound 2.53 µM) of the same compound?
A: The relative viability was 0.234.

Q: What about the relative viability (ABC-1; first compound 0.08 µM) of the same compound?
A: Its relative viability is 0.759.

Q: And the relative viability (ABC-1; first compound 0.253 µM)?
A: The relative viability was 0.581.

Q: And the relative viability (ABC-1; first compound 0.8 µM)?
A: The relative viability was 0.602.

Q: What about the relative viability (ABC-1; first compound 2.53 µM) of the same compound?
A: Its relative viability is 0.348.

Q: And the relative viability (HCC-366; first compound 0.08 µM)?
A: Its relative viability is 0.164.

Q: What about the relative viability (HCC-366; first compound 0.253 µM) of the same compound?
A: The relative viability was 0.114.

Q: What about the relative viability (HCC-366; first compound 0.8 µM) of the same compound?
A: The relative viability was 0.142.

Q: And the relative viability (HCC-366; first compound 2.53 µM)?
A: Its relative viability is 0.0889.

Q: And the relative viability (CAL-12T; first compound 0.08 µM)?
A: The relative viability was 0.433.

Q: What about the relative viability (CAL-12T; first compound 0.253 µM) of the same compound?
A: The relative viability was 0.33.

Q: And the relative viability (CAL-12T; first compound 0.8 µM)?
A: Its relative viability is 0.373.

Q: And the relative viability (CAL-12T; first compound 2.53 µM)?
A: Its relative viability is 0.34.

Q: What about the relative viability (NCI-H3122; first compound 0.08 µM) of the same compound?
A: The relative viability was 0.667.

Q: What about the relative viability (NCI-H3122; first compound 0.253 µM) of the same compound?
A: Its relative viability is 0.533.

Q: What about the relative viability (NCI-H3122; first compound 0.8 µM) of the same compound?
A: Its relative viability is 0.568.

Q: What about the relative viability (NCI-H3122; first compound 2.53 µM) of the same compound?
A: Its relative viability is 0.381.

Q: What about the relative viability (NCI-H661; first compound 0.08 µM) of the same compound?
A: Its relative viability is 0.477.

Q: And the relative viability (NCI-H661; first compound 0.253 µM)?
A: Its relative viability is 0.378.

Q: And the relative viability (NCI-H661; first compound 0.8 µM)?
A: Its relative viability is 0.329.

Q: And the relative viability (NCI-H661; first compound 2.53 µM)?
A: The relative viability was 0.267.

Q: What about the relative viability (PC-14; first compound 0.08 µM) of the same compound?
A: The relative viability was 0.859.

Q: And the relative viability (PC-14; first compound 0.253 µM)?
A: Its relative viability is 0.662.

Q: What about the relative viability (PC-14; first compound 0.8 µM) of the same compound?
A: Its relative viability is 0.767.

Q: What about the relative viability (PC-14; first compound 2.53 µM) of the same compound?
A: The relative viability was 0.386.

Q: What about the relative viability (HARA; first compound 0.08 µM) of the same compound?
A: Its relative viability is 0.477.

Q: What about the relative viability (HARA; first compound 0.253 µM) of the same compound?
A: The relative viability was 0.386.

Q: And the relative viability (HARA; first compound 0.8 µM)?
A: Its relative viability is 0.345.

Q: And the relative viability (HARA; first compound 2.53 µM)?
A: The relative viability was 0.394.

Q: What about the relative viability (NCI-H727; first compound 0.08 µM) of the same compound?
A: Its relative viability is 0.367.

Q: And the relative viability (NCI-H727; first compound 0.253 µM)?
A: Its relative viability is 0.324.

Q: And the relative viability (NCI-H727; first compound 0.8 µM)?
A: The relative viability was 0.415.

Q: What about the relative viability (NCI-H727; first compound 2.53 µM) of the same compound?
A: The relative viability was 0.357.

Q: And the relative viability (EKVX; first compound 0.08 µM)?
A: The relative viability was 0.413.

Q: And the relative viability (EKVX; first compound 0.253 µM)?
A: The relative viability was 0.301.

Q: What about the relative viability (EKVX; first compound 0.8 µM) of the same compound?
A: Its relative viability is 0.377.

Q: What about the relative viability (EKVX; first compound 2.53 µM) of the same compound?
A: The relative viability was 0.24.

Q: And the relative viability (NCI-H441; first compound 0.08 µM)?
A: The relative viability was 0.605.

Q: What about the relative viability (NCI-H441; first compound 0.253 µM) of the same compound?
A: Its relative viability is 0.461.

Q: What about the relative viability (NCI-H441; first compound 0.8 µM) of the same compound?
A: Its relative viability is 0.517.

Q: And the relative viability (NCI-H441; first compound 2.53 µM)?
A: Its relative viability is 0.603.

Q: What about the relative viability (COR-L23; first compound 0.08 µM) of the same compound?
A: Its relative viability is 1.05.

Q: What about the relative viability (COR-L23; first compound 0.253 µM) of the same compound?
A: Its relative viability is 0.768.

Q: What about the relative viability (COR-L23; first compound 0.8 µM) of the same compound?
A: Its relative viability is 0.757.

Q: And the relative viability (COR-L23; first compound 2.53 µM)?
A: The relative viability was 0.564.

Q: What about the relative viability (LU99A; first compound 0.08 µM) of the same compound?
A: Its relative viability is 0.336.

Q: And the relative viability (LU99A; first compound 0.253 µM)?
A: The relative viability was 0.279.

Q: What about the relative viability (LU99A; first compound 0.8 µM) of the same compound?
A: Its relative viability is 0.305.

Q: What about the relative viability (LU99A; first compound 2.53 µM) of the same compound?
A: The relative viability was 0.293.

Q: And the relative viability (NCI-H2170; first compound 0.08 µM)?
A: The relative viability was 0.298.

Q: What about the relative viability (NCI-H2170; first compound 0.253 µM) of the same compound?
A: The relative viability was 0.277.

Q: What about the relative viability (NCI-H2170; first compound 0.8 µM) of the same compound?
A: Its relative viability is 0.269.

Q: What about the relative viability (NCI-H2170; first compound 2.53 µM) of the same compound?
A: Its relative viability is 0.26.

Q: What about the relative viability (NCI-H838; first compound 0.08 µM) of the same compound?
A: The relative viability was 0.441.

Q: And the relative viability (NCI-H838; first compound 0.253 µM)?
A: Its relative viability is 0.374.

Q: What about the relative viability (NCI-H838; first compound 0.8 µM) of the same compound?
A: The relative viability was 0.343.

Q: What about the relative viability (NCI-H838; first compound 2.53 µM) of the same compound?
A: Its relative viability is 0.246.

Q: And the relative viability (NCI-H1666; first compound 0.08 µM)?
A: Its relative viability is 0.378.

Q: And the relative viability (NCI-H1666; first compound 0.253 µM)?
A: The relative viability was 0.333.

Q: What about the relative viability (NCI-H1666; first compound 0.8 µM) of the same compound?
A: The relative viability was 0.279.

Q: What about the relative viability (NCI-H1666; first compound 2.53 µM) of the same compound?
A: The relative viability was 0.411.

Q: And the relative viability (COR-L 105; first compound 0.08 µM)?
A: Its relative viability is 0.371.

Q: What about the relative viability (COR-L 105; first compound 0.253 µM) of the same compound?
A: Its relative viability is 0.304.

Q: And the relative viability (COR-L 105; first compound 0.8 µM)?
A: The relative viability was 0.349.

Q: What about the relative viability (COR-L 105; first compound 2.53 µM) of the same compound?
A: The relative viability was 0.347.

Q: What about the relative viability (LK-2; first compound 0.08 µM) of the same compound?
A: Its relative viability is 0.565.

Q: What about the relative viability (LK-2; first compound 0.253 µM) of the same compound?
A: Its relative viability is 0.505.

Q: And the relative viability (LK-2; first compound 0.8 µM)?
A: The relative viability was 0.643.

Q: What about the relative viability (LK-2; first compound 2.53 µM) of the same compound?
A: The relative viability was 0.607.
